# Results as given in patent US20130116227A1, “BIARYL AMIDE DERIVATIVE OR PHARMACEUTICALLY ACCEPTABLE SALT THEREOF” (DAINIPPON SUMITOMO PHARMA CO., LTD., priority 2010, published 2013).
# Biological target: T1, aldosterone receptor (Rattus norvegicus, UniProt P22199)
# T1 construct: centrifuged at 105,000 g for 30 minutes, and then a supernatant was collected as a renal soluble fraction; from tissue; host or cells: rat kidney (adrenalectomized rat), 105,000 g supernatant (cytosol)
# T1 sequence (P22199 1-981): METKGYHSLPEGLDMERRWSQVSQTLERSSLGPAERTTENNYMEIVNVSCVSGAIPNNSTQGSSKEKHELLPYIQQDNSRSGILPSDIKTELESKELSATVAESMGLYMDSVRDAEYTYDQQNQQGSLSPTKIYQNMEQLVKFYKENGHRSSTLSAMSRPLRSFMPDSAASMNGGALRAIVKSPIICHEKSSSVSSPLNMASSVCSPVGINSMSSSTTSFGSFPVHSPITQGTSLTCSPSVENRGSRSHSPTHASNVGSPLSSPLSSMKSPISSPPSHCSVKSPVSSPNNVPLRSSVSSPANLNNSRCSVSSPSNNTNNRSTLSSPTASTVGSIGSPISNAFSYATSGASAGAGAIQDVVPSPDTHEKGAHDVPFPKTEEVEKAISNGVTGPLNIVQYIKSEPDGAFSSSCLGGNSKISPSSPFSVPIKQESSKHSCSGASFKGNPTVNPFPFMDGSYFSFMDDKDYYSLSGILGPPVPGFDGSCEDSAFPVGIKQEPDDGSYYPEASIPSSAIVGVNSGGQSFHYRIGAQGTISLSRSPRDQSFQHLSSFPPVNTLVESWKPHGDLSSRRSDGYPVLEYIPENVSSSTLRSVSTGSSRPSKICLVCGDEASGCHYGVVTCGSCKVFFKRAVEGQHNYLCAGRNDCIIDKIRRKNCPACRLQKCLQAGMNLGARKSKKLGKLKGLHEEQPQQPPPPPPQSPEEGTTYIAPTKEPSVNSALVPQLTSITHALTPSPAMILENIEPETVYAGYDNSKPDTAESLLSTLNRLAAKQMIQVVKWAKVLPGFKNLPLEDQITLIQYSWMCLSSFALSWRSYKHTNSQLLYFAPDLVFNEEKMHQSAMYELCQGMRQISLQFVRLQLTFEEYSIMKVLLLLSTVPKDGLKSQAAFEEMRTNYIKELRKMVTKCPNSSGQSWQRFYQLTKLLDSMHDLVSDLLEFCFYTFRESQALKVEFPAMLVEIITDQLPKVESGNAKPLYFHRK
# Assay: Binding inhibition test for aldosterone receptor ([3H]aldosterone, rat renal soluble fraction)
# Conditions: [3H]aldosterone 2 nM, rat renal soluble fraction, in the presence of 2 μM RU-486, 4° C. about 18 hours; read-out: MR IC50
# Description: Binding Inhibition Test for Aldosterone Receptor
# A rat was layed open in flank regions (on both sides) to remove both adrenal glands. After stitching up the incision, the rat was returnd to a breeding cage again. After removing the kidney from the rat reared for about 3 to 5 days, the kidney was homogenized in 0.1 M Tris-HCl, 0.25M sucrose, 0.1M Na2MoO4 and 2 mM DTT buffer solution (pH7.4). The resultant was centrifuged at 105,000 g for 30 minutes, and then a supernatant was collected as a renal soluble fraction.
# The rat renal soluble fraction (0.5 to 1.5 mg), a labeled ligand [^3H] aldosterone (2 nM) and a test article were reacted in the presence of 2 μM RU-486 (glucocorticoid receptor antagonist) in 100 μL of total amounts at 4° C. for about 18 hours. Afterwards, to the reaction solution was added 50 μL of 5% dextran-coated activated charcoal, and the mixture was immingled, and then centrifuged at 3,000 g for 5 minutes. Then, a supernatant (100 μL) was collected and mixed with a liquid scintillator ACS-II (Amersham) (3.5 mL), and then analyzed its radioactivity by a liquid scintillation counter (manufactured by Packard, Tri Carb 2700TR). A non-specific binding was obtained by addition of 2 μM aldosterone to a reaction solution. […]
# Binding inhibition rate (%)=100−{(B−N)/(B0−N)}×100
# B: labeled ligand binding amounts in the presence of a test article and a labeled ligand
# B0: labeled ligand binding amounts in the absence of a test article
# N: labeled ligand binding amounts in the presence of excess aldosterone (2 μM)
# Test example 1 was carried out for compounds obtained in the Examples.
row,Structure (SMILES),IC50
1,COc1cc(C(=O)Nc2ccc(-c3ccccc3NC3CCCC3)c(C)c2)ccc1S(N)(=O)=O [Example 346],1.1 µM
2,COc1cc(C(=O)Nc2ccc(-c3ccccc3NC(C)C)c(C)c2)ccc1S(N)(=O)=O [Example 351],1.2 µM
3,CCC(CC)NCc1cc(NC(=O)c2ccc(S(N)(=O)=O)c(OC)c2)ccc1-c1ccccc1C(F)(F)F [Example 355],1 µM
4,COc1cc(C(=O)Nc2ccc(-c3ccccc3C(F)(F)F)c(CC#N)c2)ccc1S(N)(=O)=O [Example 363],0.75 µM
5,COc1cc(NC(=O)c2ccc(-c3ccc(F)cc3F)c(CNCC(F)F)c2)ccc1S(N)(=O)=O [Example 414],1.7 µM
6,COc1cc(NC(=O)c2ccc(-c3ccccc3F)c(CNCC(F)F)c2)ccc1S(N)(=O)=O [Example 419],1.2 µM
7,COc1cc(NC(=O)c2ccc(-c3ccccc3CC(F)(F)F)c(CNCC(F)F)c2)ccc1S(N)(=O)=O [Example 438],< 10 µM
8,COc1cc(NC(=O)c2ccc(-c3ccc(C)cc3C(F)(F)F)c(CNCC(F)F)c2)ccc1S(N)(=O)=O [Example 440],< 10 µM
9,COc1cc(NC(=O)c2ccc(-c3cc(C)ccc3C(F)(F)F)c(CNCC(F)F)c2)ccc1S(N)(=O)=O [Example 443],< 10 µM
10,COc1cc(NC(=O)c2ccc(-c3ccccc3C3CC3)c(CNCC(F)F)c2)ccc1S(N)(=O)=O [Example 448],< 10 µM
11,COc1cc(NC(=O)c2ccc(-c3cccc(Cl)c3Cl)c(CNCC(F)F)c2)ccc1S(N)(=O)=O [Example 454],< 10 µM
12,COc1cc(NC(=O)c2ccc(-c3cc(F)ccc3Cl)c(CNCC(F)F)c2)ccc1S(N)(=O)=O [Example 457],< 10 µM
13,COc1cc(NC(=O)c2ccc(-c3ccc(C(F)(F)F)cc3Cl)c(CNCC(F)F)c2)ccc1S(N)(=O)=O [Example 460],< 10 µM
14,CCOc1ncccc1-c1ccc(C(=O)Nc2ccc(S(N)(=O)=O)c(OC)c2)cc1CNCC(F)F [Example 463],< 10 µM
15,COc1cc(NC(=O)c2ccc(-c3ccccc3C(C)(F)F)c(CNCC(F)F)c2)ccc1S(N)(=O)=O [Example 469],< 10 µM
16,COc1cc(NC(=O)c2ccc(-c3ccc(F)cc3C3CC3)c(CNCC(F)F)c2)ccc1S(N)(=O)=O [Example 470],< 10 µM
17,COc1cc(NC(=O)c2ccc(-c3ccc(Cl)cc3C(F)(F)F)c(CNCC(F)F)c2)ccc1S(N)(=O)=O [Example 474],< 10 µM
18,COc1cc(NC(=O)c2ccc(-c3ccccc3OC(F)(F)C(F)F)c(CNCC(F)F)c2)ccc1S(N)(=O)=O [Example 478],< 10 µM
19,CCCOc1ncccc1-c1ccc(C(=O)Nc2ccc(S(N)(=O)=O)c(OC)c2)cc1CNCC(F)F [Example 481],< 10 µM
20,COc1cc(NC(=O)c2ccc(-c3ccc(F)cc3C(F)(F)F)c(CNCC(F)F)c2)ccc1S(N)(=O)=O [Example 486],< 10 µM
21,COc1cc(C(=O)Nc2ccc(-c3ccccc3Cl)c(CNCC(F)F)c2)ccc1S(N)(=O)=O [Example 488],< 10 µM
22,COc1cc(C(=O)Nc2ccc(-c3ccccc3OC(F)(F)F)c(C)c2)ccc1S(N)(=O)=O [Example 499],1.2 µM
23,CS(=O)(=O)c1ccc(NC(=O)c2ccc(-c3ccccc3OC(F)(F)F)c(CN3CCC3)c2)cc1 [Example 508],< 10 µM
24,Cn1nccc1CNCc1cc(C(=O)Nc2ccc(S(C)(=O)=O)cc2)ccc1-c1ccccc1OC(F)(F)F [Example 520],2.9 µM
25,CS(=O)(=O)c1ccc(NC(=O)c2ccc(-c3ccccc3OC(F)(F)F)c(CNc3ncccn3)c2)cc1 [Example 526],2.2 µM
26,COc1cc(C(=O)Nc2ccc(-c3ccccc3C(F)(F)F)c(CNCC(F)(F)F)c2)ccc1S(N)(=O)=O [Example 528],< 10 µM
27,COc1cc(NC(=O)c2ccc(-c3cccnc3-c3cccnc3)c(C)c2)ccc1S(N)(=O)=O [Example 531],< 10 µM

# Second part, the compound after the results:
row,IC50,Structure (SMILES)
1,0.47 µM,COc1cc(C(=O)Nc2ccc(-c3ccccc3N3CCCCC3)c(C)c2)ccc1S(N)(=O)=O [Example 342]
2,0.14 µM,COc1cc(C(=O)Nc2ccc(-c3ccccc3N3C[C@@H](C)O[C@@H](C)C3)c(C)c2)ccc1S(N)(=O)=O [Example 345]
3,0.13 µM,COCCNCc1cc(NC(=O)c2ccc(S(N)(=O)=O)c(OC)c2)ccc1-c1ccccc1C(F)(F)F [Example 357]
4,0.54 µM,COCCNCc1cc(NC(=O)c2ccc(S(N)(=O)=O)c(OC)c2)ccc1-c1ccccc1OC(F)(F)F [Example 364]
5,0.46 µM,CCC(CC)NCc1cc(NC(=O)c2ccc(S(N)(=O)=O)c(OC)c2)ccc1-c1ccccc1OC(F)(F)F [Example 365]
6,0.45 µM,COc1cc(C(=O)Nc2ccc(-c3ccccc3C(F)(F)F)c(CN3CC(C)OC(C)C3)c2)ccc1S(N)(=O)=O (stereo not shown) [Example 371]
7,0.1 µM,CCOCc1cc(NC(=O)c2ccc(S(N)(=O)=O)c(OC)c2)ccc1-c1ccccc1C(F)(F)F [Example 373]
8,0.38 µM,COc1cc(C(=O)Nc2ccc(-c3ccccc3C(F)(F)F)c(CN3CC[C@H](F)C3)c2)ccc1S(N)(=O)=O [Example 376]
9,0.63 µM,COc1cc(C(=O)Nc2ccc(-c3ccccc3C(F)(F)F)c(CN3CC(F)(F)C3)c2)ccc1S(N)(=O)=O [Example 385]
10,0.36 µM,COc1cc(C(=O)Nc2ccc(-c3ccccc3C(F)(F)F)c(CN3CCSCC3)c2)ccc1S(N)(=O)=O [Example 387]
11,0.56 µM,COc1cc(C(=O)Nc2ccc(-c3ccccc3C(F)(F)F)c(CNCC(F)F)c2)ccc1S(N)(=O)=O [Example 389]
12,0.45 µM,COc1cc(C(=O)Nc2ccc(-c3ccccc3C(F)(F)F)c(CN3CCC(F)CC3)c2)ccc1S(N)(=O)=O [Example 392]
13,0.52 µM,COc1cc(C(=O)Nc2ccc(-c3ccccc3C(F)(F)F)c(CN3CCC4(CC3)OCCO4)c2)ccc1S(N)(=O)=O [Example 393]
14,0.19 µM,COc1cc(C(=O)Nc2ccc(-c3ccccc3C(F)(F)F)c(CN3CCC4(C3)OCCO4)c2)ccc1S(N)(=O)=O [Example 395]
15,0.63 µM,COc1cc(C(=O)Nc2ccc(-c3ccccc3C(F)(F)F)c(CNC3CC3)c2)ccc1S(N)(=O)=O [Example 403]
16,0.21 µM,COc1cc(C(=O)Nc2ccc(-c3ccccc3C(F)(F)F)c(Cn3cccn3)c2)ccc1S(N)(=O)=O [Example 405]
17,0.26 µM,COc1cc(C(=O)Nc2ccc(-c3ccccc3C(F)(F)F)c(Cn3nccn3)c2)ccc1S(N)(=O)=O [Example 407]
18,0.52 µM,COc1cc(C(=O)Nc2ccc(-c3ccccc3C(F)(F)F)c(COC3CCOCC3)c2)ccc1S(N)(=O)=O [Example 410]
19,0.63 µM,COc1cc(NC(=O)c2ccc(-c3ccccc3C)c(CNCC(F)F)c2)ccc1S(N)(=O)=O [Example 415]
20,0.58 µM,COc1cc(NC(=O)c2ccc(-c3ccc(F)cc3Cl)c(CNCC(F)F)c2)ccc1S(N)(=O)=O [Example 426]
21,0.55 µM,COc1cc(NC(=O)c2ccc(-c3ccccc3Cl)c(CNCC(F)F)c2)ccc1S(N)(=O)=O [Example 451]
22,0.19 µM,CCCN(Cc1cc(C(=O)Nc2ccc(S(C)(=O)=O)cc2)ccc1-c1ccccc1OC(F)(F)F)CC1CC1 [Example 500]
23,0.29 µM,CCCN(CCC)Cc1cc(C(=O)Nc2ccc(S(C)(=O)=O)cc2)ccc1-c1ccccc1OC(F)(F)F [Example 505]
24,0.28 µM,CS(=O)(=O)c1ccc(NC(=O)c2ccc(-c3ccccc3OC(F)(F)F)c(CN3CC[C@@H](F)C3)c2)cc1 [Example 510]
25,0.7 µM,CS(=O)(=O)c1ccc(NC(=O)c2ccc(-c3ccccc3OC(F)(F)F)c(CNC3CC3)c2)cc1 [Example 513]
